In ChEMBL document CHEMBL1201862, “PubChem BioAssay data set” (2004):
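Values below derive from 48-hour exposures of cells grown in 96-well plates, with endpoints linearly interpolated between the two concentrations bracketing the appropriate inhibition level. GI50 marks 50% less growth.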 Active and inactive are the calls of the source. Rule as the data show it: active = GI50 up to about 1.1 µM and inactive = higher.

Experiments:
Assay in all cases: NCI-60 cell line screen, 48 h
T47D = tested on: T47D
OVCAR-5 = tested on: OVCAR-5
SK-MEL-2 = tested on: SK-MEL-2
MOLT-4 = tested on: MOLT-4
K562 = tested on: K562
NCI-H522 = tested on: NCI-H522
Hs-578T = tested on: Hs-578T
SK-MEL-5 = tested on: SK-MEL-5
NCI-H460 = tested on: NCI-H460
786-0 = tested on: 786-0
OVCAR-8 = tested on: OVCAR-8
HCT-15 = tested on: HCT-15
IGROV-1 = tested on: IGROV-1
UACC-257 = tested on: UACC-257
RPMI-8226 = tested on: RPMI-8226
CAKI-1 = tested on: CAKI-1
SNB-75 = tested on: SNB-75
DU-145 = tested on: DU-145
SW-620 = tested on: SW-620
LOX IMVI = tested on: LOX IMVI

Measured: GI50

O=C(CCc1ccccc1)NCCc1ccc(O)c(O)c1
inactive: T47D 59.4 µM | OVCAR-5 > 31.6 µM | SK-MEL-2 22 µM | MOLT-4 3.89 µM | K562 7.11 µM | NCI-H522 5.26 µM | Hs-578T > 50.1 µM | SK-MEL-5 16.7 µM | NCI-H460 46.9 µM | 786-0 21.5 µM | OVCAR-8 30.3 µM | IGROV-1 23.5 µM | UACC-257 44.6 µM | RPMI-8226 2.54 µM | CAKI-1 4.99 µM | SNB-75 84.5 µM | DU-145 > 63.2 µM | SW-620 > 100 µM | LOX IMVI 35.6 µM
31.3 µM: HCT-15

CC(=O)OC1(C)C(=O)OC/C2=C/CN(C)CCC(OC(=O)C(O)(C(C)Cl)CC1C)C2=O.c1ccccc1 (stereo unspecified)
inactive: T47D > 100 µM | OVCAR-5 > 100 µM | SK-MEL-2 > 100 µM | MOLT-4 > 100 µM | K562 > 100 µM | NCI-H522 > 100 µM | Hs-578T > 100 µM | SK-MEL-5 > 100 µM | NCI-H460 > 100 µM | 786-0 > 100 µM | OVCAR-8 > 100 µM | IGROV-1 > 100 µM | UACC-257 > 100 µM | RPMI-8226 > 100 µM | CAKI-1 > 100 µM | SNB-75 > 100 µM | DU-145 > 100 µM | SW-620 > 100 µM | LOX IMVI > 100 µM
> 100 µM: HCT-15

CC(C)C[C@H](NC(=O)[C@H](Cc1ccccc1)NC(=O)CCc1ccccc1)B(O)O
< 0.01 µM: HCT-15
active: T47D < 0.01 µM | OVCAR-5 < 0.01 µM | SK-MEL-2 < 0.01 µM | MOLT-4 < 0.01 µM | K562 < 0.01 µM | NCI-H522 < 0.01 µM | Hs-578T < 0.01 µM | SK-MEL-5 < 0.01 µM | NCI-H460 < 0.01 µM | 786-0 < 0.01 µM | OVCAR-8 < 0.01 µM | IGROV-1 < 0.01 µM | UACC-257 < 0.01 µM | RPMI-8226 < 0.01 µM | CAKI-1 < 0.01 µM | SNB-75 < 0.01 µM | DU-145 < 0.01 µM | SW-620 < 0.01 µM | LOX IMVI < 0.01 µM

COC(=O)/C=C(/C(=O)OC)c1cc2ccc3c([nH]c4ccccc43)c(C)c-2c1
inactive: T47D 3.6 µM | OVCAR-5 3.56 µM | SK-MEL-2 7.5 µM | MOLT-4 3.13 µM | K562 2.54 µM | NCI-H522 2.54 µM | Hs-578T 3.41 µM | SK-MEL-5 2.88 µM | NCI-H460 4.45 µM | 786-0 4.78 µM | OVCAR-8 3.03 µM | IGROV-1 2.74 µM | UACC-257 6.95 µM | RPMI-8226 3.72 µM | CAKI-1 6.32 µM | SNB-75 5.26 µM | DU-145 9.73 µM | SW-620 4.93 µM | LOX IMVI 3.66 µM
3.94 µM: HCT-15

CC1=C(C(=O)Nc2ccccc2C)C(c2ccc(C3C(C(=O)Nc4ccccc4C)=C(C)NC(C)=C3C(=O)Nc3ccccc3C)cc2)C(C(=O)Nc2ccccc2C)=C(C)N1
9.4 µM: HCT-15
inactive: T47D 4.24 µM | OVCAR-5 14.1 µM | SK-MEL-2 9.23 µM | MOLT-4 2.48 µM | K562 2.87 µM | NCI-H522 1.89 µM | Hs-578T 14 µM | SK-MEL-5 12.1 µM | NCI-H460 9.04 µM | 786-0 3.47 µM | OVCAR-8 2.8 µM | IGROV-1 3.16 µM | UACC-257 2.8 µM | RPMI-8226 2.51 µM | CAKI-1 7.1 µM | SNB-75 14.4 µM | DU-145 15.9 µM | SW-620 2.49 µM | LOX IMVI 1.63 µM

Cc1ccc(Nc2n[nH]c(=S)s2)cc1C
inactive: T47D 27.4 µM | OVCAR-5 > 100 µM | SK-MEL-2 > 100 µM | MOLT-4 59.3 µM | K562 64.1 µM | NCI-H522 60.3 µM | Hs-578T > 100 µM | SK-MEL-5 68.2 µM | NCI-H460 59 µM | 786-0 > 100 µM | OVCAR-8 > 100 µM | IGROV-1 > 100 µM | UACC-257 > 100 µM | RPMI-8226 81.5 µM | CAKI-1 > 100 µM | SNB-75 > 100 µM | DU-145 > 100 µM | SW-620 > 100 µM | LOX IMVI > 100 µM
60.4 µM: HCT-15

CN(C)Cc1cc(C(C)(C)C)cc(CNC2CCCCC2)c1O
28.8 µM: HCT-15
inactive: T47D 63.5 µM | OVCAR-5 19.2 µM | SK-MEL-2 > 100 µM | MOLT-4 12.3 µM | K562 22.1 µM | NCI-H522 24.2 µM | Hs-578T 61.2 µM | SK-MEL-5 15.5 µM | NCI-H460 20.4 µM | 786-0 27.9 µM | IGROV-1 29.4 µM | UACC-257 26.2 µM | RPMI-8226 16.7 µM | CAKI-1 44.6 µM | SNB-75 52.4 µM | DU-145 40.9 µM | SW-620 33.5 µM | LOX IMVI 22.1 µM

COc1ccc(-c2cc3c(nn2)-c2ccccc2C3=O)cc1
> 10 µM: HCT-15
active: SNB-75 0.845 µM
inactive: T47D > 10 µM | OVCAR-5 > 10 µM | SK-MEL-2 > 10 µM | K562 > 10 µM | NCI-H522 > 10 µM | Hs-578T > 10 µM | SK-MEL-5 > 10 µM | NCI-H460 > 10 µM | 786-0 > 10 µM | OVCAR-8 > 10 µM | IGROV-1 > 10 µM | UACC-257 > 10 µM | RPMI-8226 > 10 µM | CAKI-1 > 10 µM | DU-145 > 10 µM | SW-620 > 10 µM | LOX IMVI > 10 µM

C#CCOC(=O)C(N)CSSCC(N)C(=O)O (stereo unspecified)
inactive: T47D > 100 µM | OVCAR-5 > 100 µM | SK-MEL-2 > 100 µM | MOLT-4 > 100 µM | NCI-H522 > 100 µM | Hs-578T > 100 µM | SK-MEL-5 > 100 µM | NCI-H460 > 100 µM | 786-0 > 100 µM | OVCAR-8 > 100 µM | IGROV-1 > 100 µM | UACC-257 > 100 µM | RPMI-8226 > 100 µM | CAKI-1 > 100 µM | SNB-75 > 100 µM | DU-145 > 100 µM | SW-620 > 100 µM | LOX IMVI 65.9 µM
> 100 µM: HCT-15

Nc1cc(S(=O)(=O)O)cc2ccc(S(=O)(=O)O)cc12
> 100 µM: HCT-15
inactive: T47D > 100 µM | OVCAR-5 > 100 µM | SK-MEL-2 > 100 µM | K562 > 100 µM | NCI-H522 > 100 µM | Hs-578T > 100 µM | SK-MEL-5 > 100 µM | NCI-H460 > 100 µM | 786-0 > 100 µM | OVCAR-8 > 100 µM | IGROV-1 > 100 µM | UACC-257 > 100 µM | RPMI-8226 > 100 µM | CAKI-1 > 100 µM | SNB-75 > 100 µM | DU-145 > 100 µM | SW-620 > 100 µM | LOX IMVI > 100 µM
